How the values were obtained:
H5N1 virus = assay type: cell-based, influenza A H5N1 virus
H1N1 virus = assay type: cell-based, influenza A H1N1 virus
[1] = test system: Avian influenza H5N1 virus, A/Vietnam/1203/04; assay type: cell-based
dihydrofolic reductase = target: T1, dihydrofolic reductase (Homo sapiens, UniProt P00374); conditions: Baker and Jordaan, J. Med. Chem. 1965; cited from earlier work
T1 sequence (P00374 1-187): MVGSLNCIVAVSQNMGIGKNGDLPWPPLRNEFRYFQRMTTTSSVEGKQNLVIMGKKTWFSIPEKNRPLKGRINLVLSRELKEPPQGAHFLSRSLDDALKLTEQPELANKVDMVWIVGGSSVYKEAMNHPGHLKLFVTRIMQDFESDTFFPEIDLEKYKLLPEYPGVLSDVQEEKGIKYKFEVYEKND

MDCK cells = experiment: Cell viability test (MTT); conditions: 100 uM
[2] = test system: Primary human blood macrophages; experiment: Cell viability test (MTT); conditions: 100 uM
[3] = test system: human influenza H1N1 virus, A/HK/54/98; assay type: cell-based

| SMILES | level of H5N1 viruses on the surface of MDCK cells (H5N1 virus) | level of H1N1 viruses on the surface of MDCK cells (H1N1 virus) | H5N1 virus titer [1] | inhibition of dihydrofolic reductase (dihydrofolic reductase) | degree of cytotoxicity (MTT, OD560-OD670 of sample / DMSO) (MDCK cells; 72 hours, relative to DMSO) | cytotoxicity (in words) (MDCK cells; compared with DMSO) | degree of cytotoxicity (MTT, OD560-OD670 of sample / DMSO) ([2]; 72 hours, primary human blood macrophages, relative to DMSO) | cytotoxicity (in words) ([2]; primary macrophages, compared with DMSO) | inhibition of replication of H5N1 virus (in words) [1] | inhibition of replication of H1N1 virus (in words) [3] |
| --- | --- | --- | --- | --- | --- | --- | --- | --- | --- | --- |
| CCOC(=O)C1=C[C@@H](OC(CC)CC)[C@H](NC(C)=O)[C@@H](N)C1 [oseltamivir, reference compound] | lower | lower | 2.46 × 10^6 TCID50/ml |  |  |  |  |  |  |  |
| Cc1nc(N)nc(O)c1CCCNc1ccc(/C=C/C(=O)CCl)cc1 [NSC#89853, 4-(4-((3-(2-amino-4-hydroxy-6-methyl-5-pyrimidinyl)propyl)amino)phenyl)-1-chloro-3-buten-2-one] | lower | lower |  | inhibitor | 2.2 | does not display cytotoxicity | 1.1 | does not display cytotoxicity | inhibits the replication | inhibits the replication |
